Columns and labels:
[1] = test system: riboswitch comprising aptamer 15A5; test: Luciferase reporter with 15A5 riboswitch in AML12 cells; type: cell-based, mouse; details: FIG. 6B
[2] = test system: riboswitch TPPm (E. coli thiM TPP aptamer); test: Luciferase reporter with TPPm riboswitch in HEK 293 cells; type: cell-based, human; details: FIG. 1
Description: (§1) Riboswitch constructs: Aptamers were synthesized by Integrated DNA Technologies, Inc. and Golden Gate cloning strategy (New England Biolabs, NEB) was used to clone the synthesized aptamer sequences into intron-exon-intron cassette to replace the guanine aptamer in the G17 riboswitch cassette (see SEQ ID NO: 15 recited in WO 2016/126747, which is incorporated herein in its entirety) with a TPP aptamer from the Alishewanella tabrizica thiC gene (Microbiol Res. 2017 January; 195:71-80) or a TPP aptamer from the Escherichia coli thiM gene (Structure. 2006 September; 14(9):1459-68), generating riboswitch TPPz and TPPm, respectively.
(§2) Transfection: 3.5×10^4 human embryonic kidney (HEK) 293 cells were plated in a 96-well flat bottom plate the day before transfection. Plasmid DNA (500 ng) was added to a tube or a 96-well U-bottom plate. Separately, TransIT-293 reagent (Mirus; 1.4 μL) was added to 50 μL Optimem I media (Life Technologies) and allowed to sit for 5 minutes at room temperature (RT). Then, 50 μL of this diluted transfection reagent was added to the DNA, mixed, and incubated at RT for 20 min. Finally, 7 μL of this solution was added to a well of cells in the 96-well plate. Four hours after transfection, medium containing transfection solution was replaced by medium containing either TPP, fursultiamine, prosultiamine, bisbentiamine, beclotiamine hydrochloride, or sulbutiamine as aptamer inducers.
(§3) Firefly luciferase assay of cultured cells: Twenty-four hours after media change, plates were removed from the incubator, and equilibrated to RT for several minutes on a lab bench, then aspirated. Glo-lysis buffer (Promega, 100 μL, RT) was added, and the plates allowed to remain at RT for at least 5 minutes. Then, the well contents were mixed by 50 μL trituration, and 20 μL of each sample was mixed with 20 μL of bright-glo reagent (Promega) that had been diluted to 10% in glo-lysis buffer. 96 wells were spaced on an opaque white 384-well plate. Following a 5 min incubation at RT, luminescence was measured using a Tecan machine with 500 ms read time. The luciferase activity was expressed as mean arbitrary light units (ALU)±S.D., and fold induction was calculated as the quotient of the luciferase activity obtained from cells with TPP or analog treatment divided by the luciferase activity obtained from cells without TPP or analog treatment.

riboswitch 15D10 [3] = test: Luciferase reporter with 15D10 riboswitch (Luci-15D10) in HEK 293 cells; type: cell-based, human; details: for effect on luciferase expression from Luci-15D10: HEK 293 cells, FIG. 9A, 9C
In short: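 Cells transfected with riboswitch-luciferase plasmid; 4 h later medium replaced with TPP or thiamine analogs (fursultiamine, prosultiamine, bisbentiamine, beclotiamine, sulbutiamine) as inducers.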

riboswitch 15D10 [4] = test: Luciferase reporter with 15D10 riboswitch (Luci-15D10) in AML12 cells; type: cell-based, mouse; details: for luciferase regulation in response to ligand, riboswitch 15D10: AML12 cells, FIG. 6B
[5] = test system: riboswitch comprising aptamer 15D10; details: 12.5 μM, AML12 cells
Description: (§4) Riboswitch constructs: Alternative splicing riboswitches containing aptamers 3H4 or 15D10, respectively, were inserted at position 308 into the mouse erythropoietin cDNA sequence in construct Con8-Epo (SEQ ID NO:85), resulting in constructs Epo-3H4 (SEQ ID NO:86) and Epo-15D10 (SEQ ID NO:87). Expression of the erythropoietin gene was driven by a cytomegalovirus (CMV) promoter. The riboswitch cassette containing aptamer 6B4 was inserted at position 276 into the cDNA sequence encoding enhanced green fluorescent protein (EGFP) in vector pEGFP-C1 to generate the EGFP-6B4 construct (SEQ ID NO:88). The intron-exon-intron cassette without aptamer sequence was inserted into Con8-Epo to create construct Epo-Con1 (SEQ ID NO:89), serving as a control for constitutive target gene expression.
(§5) Enzyme-linked immunosorbent assay (ELISA) for mouse erythropoietin: AML12 cells were transfected as described in Example 1 with TransIT-X2 transfection reagent (Mirus Bio). Four hours after transfection, AML12 cells were treated with or without fursultiamine at the indicated doses. The supernatants from the transfected cells were collected 24 hours after fursultiamine treatment and were subjected to ELISA for the detection of mEpo in the supernatant following the manufacturer's instruction (R&D).

[6] = test system: riboswitch comprising aptamer 3H4; details: 12.5 μM; AML12 cells; versus absence of fursultiamine
Description: as §4, §5

[7] = test system: riboswitch comprising aptamer 6B4
Description: as §4

14G4 riboswitch = details: HEK 293 cells; dose dependent; FIG. 2
Description: Riboswitch construction: TPP aptamer homologous sequences were obtained from Rfam 12.0 (https://rfam.xfam.org/) and synthesized (Twister Biotech).
To identify aptamers with increased gene regulation activity in response to thiamine analogs as compared to TPPz and TPPm, a putative TPP aptamer with homologous sequence was obtained from Rfam 12.0 (RNA family database RF00059, http://rfam.xfam.org/family/RF00059).

[8] = test system: riboswitch TPPz (A. tabrizica thiC TPP aptamer); test: Luciferase reporter with TPPz riboswitch in HEK 293 cells; type: cell-based, human; details: FIG. 1
Description: as §1, §2, §3

riboswitch 15D10 [9] = test: Luci-15D10 luciferase reporter in ARPE-19 cells; type: cell-based, human; details: FIG. 9E
riboswitch 15D10 [10] = test: Luci-15D10 luciferase reporter in Hep G2 cells; type: cell-based, human; details: potency compared at 12.5 μM, FIG. 9F
riboswitch 6B4 = test: In vivo bioluminescence imaging, mice given AAV luci-6B4; parameters: species or system Balb/c mice
Description: (§6) AAV2.8 viral particle production: The AAV2.8 particles used for the transfection of mice comprised a viral genome derived from AAV2 and a capsid derived from AAV8. The luciferase gene containing an intron-exon-intron cassette with (1) a non-regulatable riboswitch without aptamer (“luci-Con1”, SEQ ID NO:90), (2) a riboswitch cassette comprising aptamer 3H4 (“luci-3H4”, SEQ ID NO:91), or (3) a riboswitch cassette comprising aptamer 6B4 (“luci-6B4”, SEQ ID NO:92), respectively, was cloned into an AAV2 plasmid vector. Expression of the luciferase gene was controlled by a CASI promoter, which includes CMV and ubiquitin C enhancer elements and the chicken β-actin promoter. The viral vector was packaged into AAV8 capsid and produced following manufacture's protocol (Vigene Biosciences).
(§7) Animal study: Male Balb/c mice received a single tail vein injection of 1.0×10^11 or 2.5×10^11 genome copies of the receptive AAV2.8 viral particle. Twenty-eight days after AAV vector delivery, mice were treated intraperitoneally (IP.) with 50 mg/kg prosultiamine. Luciferase activity was measured the day prior to drug dosing, as well as 6 h, 24 h, 48 h and 72 h after drug dosing. After the first administration of prosultiamine, the mice were subjected to three additional rounds of dosing and imaging cycles as follows: Day 36 (after AAV administration):100 mg/kg; day 43: 200 mg/kg; and day 51: 400 mg/kg.
(§8) Noninvasive live animal bioluminescence imaging: Before imaging, mice were anesthetized with 2% isoflurane, and injected with 150 mg/kg body weight of luciferin. At the indicated time point post drug dosing, images were taken within 2 to 5 minutes after luciferin injection using a Bruker Xtreme system. Luciferase activity was expressed as mean photon/s±S.D. (n=5). The fold induction of luciferase gene expression was calculated as the quotient of photon/s obtained from mice treated with prosultiamine divided by the value obtained from mice the day before prosultiamine treatment.

riboswitch 3H4 = test: In vivo bioluminescence imaging, mice given AAV luci-3H4; parameters: species or system Balb/c mice
Description: as §6, §7, §8

[11] = 50 mg/kg IP single dose, six hours after dosing
[12] = 50 mg/kg and 100 mg/kg IP doses
[13] = 200 mg/kg and 400 mg/kg IP doses

| SMILES | luciferase regulation in response to ligand, riboswitch 15A5 [1] | effect on luciferase expression, riboswitch TPPm [2] | fold induction at 50 µM (riboswitch 15D10 [3]; Homo sapiens, HEK293, 24 h, read-out: Fold increase in riboswitch 15D10-regulated luciferase expression, HEK) | luciferase regulation in response to ligand, riboswitch 15D10 (riboswitch 15D10 [4]) | fold induction at 50 µM (riboswitch 15D10 [4]; Mus musculus, AML12, 24 h, read-out: Fold increase in riboswitch 15D10-regulated luciferase expression, AML) | level of mEpo from mEpo-15D10 relative to constitutive mEpo-Con1 construct [5] | induction of mEpo expression, Epo-15D10 ([5]; versus absence of fursultiamine) | induction of mEpo expression, Epo-3H4 [6] [fold] | increase in EGFP expression [7] [fold] | increase in luciferase expression, 14G4 riboswitch (14G4 riboswitch) [fold] | effect on luciferase expression, riboswitch TPPz [8] | effect on luciferase expression from Luci-15D10 (riboswitch 15D10 [3]) | activity in increasing riboswitch 15D10-regulated luciferase expression (riboswitch 15D10 [9]) | activity in increasing riboswitch 15D10-regulated luciferase expression (riboswitch 15D10 [10]) | luciferase activity in mice, riboswitch 6B4 (riboswitch 6B4; [11]) | time at which induced luciferase activity attenuated to pre-treatment level (riboswitch 6B4; [12]) [h] | time induced luciferase activity remained (riboswitch 6B4; [13]) [h] | luciferase activity in mice, riboswitch 3H4 (riboswitch 3H4; [11]) | time at which induced luciferase activity attenuated to pre-treatment level (riboswitch 3H4; [12]) [h] | time induced luciferase activity remained (riboswitch 3H4; [13]) [h] |
| --- | --- | --- | --- | --- | --- | --- | --- | --- | --- | --- | --- | --- | --- | --- | --- | --- | --- | --- | --- | --- |
| CC(=C(CCO)SSCC1CCCO1)N(C=O)Cc1cnc(C)nc1N (stereo in doubt) [fursultiamine] | robustly regulate luciferase expression | induce luciferase expression | 446 | robustly regulate luciferase expression | 315 | approximately 61.3% | about 40 fold | ~9 | 14 | 100 | induce luciferase expression | – | – | – | – | – | – | – | – | – |
| COc1ccc(C(=O)S/C(CCOP(=O)(O)O)=C(/C)N(C=O)Cc2cnc(C)nc2N)cc1 [Compound M32, (Z)—S-(2-(N-((4-Amino-2-methylpyrimidin-5-yl)methyl)formamido)-5-(phosphonooxy)pent-2-en-3-yl) 4-methoxybenzothioate] | – | – | – | – | – | – | – | – | – | – | – | no effect on luciferase expression | no activity | no activity | – | – | – | – | – | – |
| C/C(=C(\CCOP(=O)(O)O)SC(=O)c1ccccc1)N(C=O)Cc1cnc(C)nc1N [benfotiamine, reference compound] | robustly regulate luciferase expression | – | – | robustly regulate luciferase expression | – | – | – | – | – | – | – | no effect on luciferase expression | no activity | no activity | – | – | – | – | – | – |
| CCCSS/C(CCO)=C(/C)N(C=O)Cc1cnc(C)nc1N [prosultiamine] | robustly regulate luciferase expression | induce luciferase expression | – | robustly regulate luciferase expression | – | – | – | – | – | – | induce luciferase expression | – | – | – | significantly increased | 24 | ≥ 48 | significantly increased | 24 | ≥ 48 |

Reference: patent publication US12570988B2, “Aptamers that bind thiamine analogs and derivatives” (MeiraGTx Gene Regulation Limited, priority 2020, dated 2026)
